Data on 23 molecules can be found in patent US20240246946A1, “MODULATORS OF TREX1” (Constellation Pharmaceuticals, Inc., priority 2021, published 2024).

Where only a bound is given, the exact number is not on record here.

Test [1] concerns the target T1, human TREX2 (residues M44-A279) (Homo sapiens, UniProt Q9BQ50).
T1 construct: human TREX2 (residues M44-A279, expressed in E. coli); made in house; host or cells: E. coli
T1 sequence (Q9BQ50 44-279 isoform Q9BQ50-1): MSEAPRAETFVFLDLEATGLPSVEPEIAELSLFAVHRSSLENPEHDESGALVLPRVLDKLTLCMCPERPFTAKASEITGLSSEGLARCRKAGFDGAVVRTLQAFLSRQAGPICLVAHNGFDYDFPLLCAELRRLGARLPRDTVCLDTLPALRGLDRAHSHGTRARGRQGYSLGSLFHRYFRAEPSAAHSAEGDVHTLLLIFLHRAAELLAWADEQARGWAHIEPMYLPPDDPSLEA
The experiment in a line: hTREX2 Biochemical Assay (fluorescence, dsDNA substrate degradation). The settings on record: biochemical selectivity for hTREX1 vs hTREX2. The procedure: Degradation of the dsDNA liberates free fluorophore to produce a fluorescent signal. Specifically, 7.5 μL of N-terminally His-Tev tagged human TREX2 (residues M44-A279, expressed in E. coli and purified in house) in reaction buffer (50 mM Tris, 150 mM NaCl, 2 mM DTT, 0.1 mg/mL BSA, 0.01% (w/v) Tween-20, 5 mM MgCl2, pH 7.4) was added to a 384-well Black ProxiPlate Plus (PerkinElmer) which already contained compound (150 nL) at varying concentrations as a 10 point dose-response in DMSO. The plate was incubated at 25° C. for 4 hours. Reactions were initiated by adding 7.5 μL of dsDNA substrate (Strand A: 5′ TEX615/GCT AGG CAG 3′; Strand B: 5′ CTG CCT AGC/IAbRQSp (IDT)) in reaction buffer. Final concentrations were 50 pM TREX2, 60 nM dsDNA substrate in reaction buffer with 1.0% DMSO (v/v). After 18 hours at 25° C., reactions were quenched by the addition of 2 μL of 500 mM EDTA. Final concentrations in the quenched reaction mixture were 44 pM TREX2, 53 nM DNA and 59 mM EDTA in a volume of 17 μL. After a 5-minute incubation at room temperature, plates were read in an EnVision plate reader (PerkinElmer) measuring fluorescence at 615 nm following excitation w/570 nm light.

The target in the next test is T2, full length mouse TREX1 (Mus musculus, UniProt Q91XB0).
T2 construct: N-terminally His-Tev tagged full length mouse TREX1; made in house; host or cells: E. coli
T2 sequence (Q91XB0 1-314): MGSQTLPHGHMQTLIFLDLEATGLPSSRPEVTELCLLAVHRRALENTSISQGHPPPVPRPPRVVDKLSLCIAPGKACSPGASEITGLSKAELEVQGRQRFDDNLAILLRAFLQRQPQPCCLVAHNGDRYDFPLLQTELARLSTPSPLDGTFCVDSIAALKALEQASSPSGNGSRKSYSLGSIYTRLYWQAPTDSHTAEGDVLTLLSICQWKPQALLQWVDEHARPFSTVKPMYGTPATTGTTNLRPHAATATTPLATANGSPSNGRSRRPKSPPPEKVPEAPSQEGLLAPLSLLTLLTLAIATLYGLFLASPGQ
Put plainly: mTREX1 Biochemical Assay (fluorescence, dsDNA substrate degradation). The settings on record: biochemical, read-out: mTREX1 IC50. Summed up:
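Reaction run 18 h at 25° C. with 60 nM TEX615/quencher-labelled dsDNA and 6 pM mouse TREX1 in Tris buffer (pH 7.4, 5 mM MgCl2, 1.0% DMSO), enzyme having sat 4 h with compound across 10 concentrations. EDTA quench; substrate degradation measured as fluorescence increase.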

The next test concerns the target T3, full length human TREX1 (Homo sapiens, UniProt Q9NSU2).
T3 construct: N-terminally His-Tev tagged full length human TREX1; made in house; host or cells: E. coli
T3 sequence (Q9NSU2 1-314): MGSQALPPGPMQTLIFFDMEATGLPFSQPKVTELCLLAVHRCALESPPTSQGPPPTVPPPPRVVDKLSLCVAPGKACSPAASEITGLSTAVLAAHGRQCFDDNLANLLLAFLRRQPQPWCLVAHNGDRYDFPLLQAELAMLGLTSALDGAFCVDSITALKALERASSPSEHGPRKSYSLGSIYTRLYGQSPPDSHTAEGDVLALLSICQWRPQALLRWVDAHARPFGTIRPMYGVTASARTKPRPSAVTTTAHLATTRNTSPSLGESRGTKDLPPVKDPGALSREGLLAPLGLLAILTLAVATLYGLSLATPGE
Put plainly: hTREX1 Biochemical Assay (fluorescence, dsDNA substrate degradation). The settings on record: biochemical, read-out: hTREX1 IC50. The essentials: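 Cleavage of 60 nM TEX615/quencher-labelled dsDNA in pH 7.4 Tris buffer with 5 mM MgCl2, 1.0% DMSO, run 18 hours at 25° C, EDTA-quenched; fluorescence read-out.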

For `CC(c1nc(C(=O)Nc2cnoc2)c(O)c(=O)n1C)C(c1cnn(C(C)C)c1)c1ccccc1C#N` (single isomer, unassigned) [Example 105 D2E2], the “hTREX1 vs hTREX2 selectivity” value in test [1] is “A (A = <25 fold selective for hTREX1)”. For the same molecule, the IC50 at full length mouse TREX1 and on full length human TREX1 was over 10 nM in each case.

In the case of `CC(c1nc(C(=O)Nc2cnoc2)c(O)c(=O)n1C)C(c1ccccc1Cl)c1nncn1C` (single isomer, unassigned) [Example 152 D2E2], in test [1], the “hTREX1 vs hTREX2 selectivity” value is recorded as “A (A = <25 fold selective for hTREX1)”. Also, the IC50 on full length mouse TREX1 and on full length human TREX1 was over 10 nM in each case.

Consider `Cc1cnc(C(c2cc(F)ccc2Cl)C(C)c2nc(C(=O)Nc3cnoc3)c(O)c(=O)n2C)cn1` (single isomer, unassigned) [Example 117 D1E1], for which the “hTREX1 vs hTREX2 selectivity” value in test [1] is on record as “A (A = <25 fold selective for hTREX1)”. Further, the IC50 on full length mouse TREX1 and on full length human TREX1 was over 10 nM throughout.

Take `COCCn1nc(C)c(C(c2cc(F)ccc2C#N)C(C)c2nc(C(=O)Nc3cnoc3)c(O)c(=O)n2C)c1C` (single isomer, unassigned) [Example 110 D1E2]: the “hTREX1 vs hTREX2 selectivity” value in test [1] is reported as “A (A = <25 fold selective for hTREX1)”. The IC50 at full length mouse TREX1 and at full length human TREX1 was over 10 nM in each case.

On to `Cc1cc(C(c2cc(F)ccc2C#N)C(C)c2nc(C(=O)Nc3cnoc3)c(O)c(=O)n2C)nn1C` (single isomer, unassigned) [Example 112 D1E2], for which, in test [1], the “hTREX1 vs hTREX2 selectivity” value is given as “A (A = <25 fold selective for hTREX1)”. The IC50 on full length mouse TREX1 and at full length human TREX1 was over 10 nM in each case.

For `CC(c1nc(C(=O)Nc2cnoc2)c(O)c(=O)n1C)C(c1cnn(CCN2CCOCC2)c1)c1ccccc1C#N` (single isomer, unassigned) [Example 20 D2E1], the “hTREX1 vs hTREX2 selectivity” value in test [1] is listed as “B (B = 25 to 50-fold selective for hTREX1)”. Further, the 50% inhibitory concentration (IC50) on full length mouse TREX1 and at full length human TREX1 was over 10 nM each time.

As to `COCCn1ncc(C(c2cc(F)ccc2Cl)C(C)c2nc(C(=O)Nc3cnoc3)c(O)c(=O)n2C)c1C` (single isomer, unassigned) [Example 108 D1E2], in test [1], the “hTREX1 vs hTREX2 selectivity” value is “A (A = <25 fold selective for hTREX1)”. Besides, the IC50 on full length mouse TREX1 and at full length human TREX1 was over 10 nM in each case.

Consider `Cc1ncc(C(c2ccccc2Cl)C(C)c2nc(C(=O)Nc3cnoc3)c(O)c(=O)n2C)cn1` (single isomer, unassigned) [Example 44 D1E1], for which the “hTREX1 vs hTREX2 selectivity” value in test [1] is on record as “A (A = <25 fold selective for hTREX1)”. Besides, the IC50 on full length mouse TREX1 and on full length human TREX1 was over 10 nM in each case.

In the case of `Cc1cnc(C(c2ccccc2C#N)C(C)c2nc(C(=O)Nc3cnoc3)c(O)c(=O)n2C)c(C)n1` (single isomer, unassigned) [Example 123 D2E2], in test [1], the “hTREX1 vs hTREX2 selectivity” value is reported as “A (A = <25 fold selective for hTREX1)”. The IC50 at full length mouse TREX1 and on full length human TREX1 was over 10 nM throughout.

In the case of `Cc1cn(C)nc1C(c1ccccc1C#N)C(C)c1nc(C(=O)Nc2cnoc2)c(O)c(=O)n1C` (single isomer, unassigned) [Example 64 D2E1], the “hTREX1 vs hTREX2 selectivity” value in test [1] is “C (C = >50 fold selective for hTREX1)”. The concentration for half-maximal inhibition (IC50) on full length mouse TREX1 is 1 to 10 nM; on full length human TREX1, under 1 nM.

As for `Cc1cnc(C(c2ccccc2C#N)C(C)c2nc(C(=O)Nc3cnoc3)c(O)c(=O)n2C)c(C)n1` (single isomer, unassigned) [Example 123 D2E1], in test [1], the “hTREX1 vs hTREX2 selectivity” value is reported as “C (C = >50 fold selective for hTREX1)”. For the same molecule, the IC50 on full length mouse TREX1 is over 10 nM; at full length human TREX1 it was 1 to 10 nM.

Take `Cc1ncc(C(c2cc(F)ccc2C#N)C(C)c2nc(C(=O)Nc3cnoc3)c(O)c(=O)n2C)nc1C` (single isomer, unassigned) [Example 124 D2E2]: in test [1], the “hTREX1 vs hTREX2 selectivity” value is recorded as “A (A = <25 fold selective for hTREX1)”. Moreover, the IC50 on full length mouse TREX1 and on full length human TREX1 was over 10 nM in each case.

In the case of `CC(c1nc(C(=O)Nc2cnoc2)c(O)c(=O)n1C)C(c1cocn1)c1ccccc1C#N` (single isomer, unassigned) [Example 50 D2E1], the “hTREX1 vs hTREX2 selectivity” value in test [1] is recorded as “C (C = >50 fold selective for hTREX1)”. For the same molecule, the IC50 at full length mouse TREX1 and at full length human TREX1 was over 10 nM each time.

`CC(c1nc(C(=O)Nc2cnoc2)c(O)c(=O)n1C)C(c1cc(F)ccc1Cl)c1cn(C)nc1C#N` (single isomer, unassigned) [Example 89 D1E1]: in test [1], the “hTREX1 vs hTREX2 selectivity” value is “A (A = <25 fold selective for hTREX1)”. In addition, the IC50 at full length mouse TREX1 and on full length human TREX1 was over 10 nM throughout.

Consider `Cc1cnc(C(c2ccccc2C#N)C(C)c2nc(C(=O)Nc3cnoc3)c(O)c(=O)n2C)c(C)n1` (single isomer, unassigned) [Example 123 D1E2], for which the “hTREX1 vs hTREX2 selectivity” value in test [1] is recorded as “A (A = <25 fold selective for hTREX1)”. In addition, the IC50 on full length mouse TREX1 and at full length human TREX1 was over 10 nM each time.

For the molecule `COCCn1cc(C(c2cc(F)c(F)cc2Cl)C(C)c2nc(C(=O)Nc3cnoc3)c(O)c(=O)n2C)cn1` (single isomer, unassigned) [Example 73 D1E1], in test [1], the “hTREX1 vs hTREX2 selectivity” value is on record as “C (C = >50 fold selective for hTREX1)”. Moreover, the IC50 at full length mouse TREX1 is 1 to 10 nM; on full length human TREX1, under 1 nM.

Regarding `Cc1cnc(C)c(C(c2ccccc2C#N)C(C)c2nc(C(=O)Nc3cnoc3)c(O)c(=O)n2C)n1` (single isomer, unassigned) [Example 82 D1E2], the “hTREX1 vs hTREX2 selectivity” value in test [1] is “B (B = 25 to 50-fold selective for hTREX1)”. Also, the IC50 at full length mouse TREX1 and on full length human TREX1 was over 10 nM throughout.

In the case of `CC(c1nc(C(=O)Nc2cnoc2)c(O)c(=O)n1C)C(c1cnn(C)c1)c1cc(F)c(F)cc1C#N` (single isomer, unassigned) [Example 25 D2E2], the IC50 at full length mouse TREX1 and at full length human TREX1 was over 10 nM each time.

Regarding `COCCn1cc(C(c2cc(F)ccc2C#N)C(C)c2nc(C(=O)Nc3cnoc3)c(O)c(=O)n2C)cn1` (single isomer, unassigned) [Example 18 D2E2], the IC50 at full length mouse TREX1 and on full length human TREX1 was over 10 nM throughout.

For `CC(c1nc(C(=O)Nc2cnoc2)c(O)c(=O)n1C)C(c1cnn(CC2CC2)c1)c1ccccc1C#N` (single isomer, unassigned) [Example 23 D1E1], the IC50 at full length mouse TREX1 and at full length human TREX1 was over 10 nM each time.

Turning to `COCCn1cc(C(c2ccccc2C#N)C(C)c2nc(C(=O)Nc3cnoc3)c(O)c(=O)n2C)cn1` (single isomer, unassigned) [Example 9 D2E2], the IC50 at full length mouse TREX1 and on full length human TREX1 was over 10 nM throughout.

As for `CC(c1nc(C(=O)Nc2cnoc2)c(O)c(=O)n1C)C(c1cnn(CCN(C)C)c1)c1ccccc1C#N` (single isomer, unassigned) [Example 33 D1E2], the IC50 at full length mouse TREX1 and at full length human TREX1 was over 10 nM throughout.

For the molecule `CC(c1nc(C(=O)Nc2cnoc2)c(O)c(=O)n1C)C(c1cnn(CC(C)(C)O)c1)c1ccccc1C#N` (single isomer, unassigned) [Example 36 D2E2], the IC50 at full length mouse TREX1 and on full length human TREX1 was over 10 nM in each case.

In general, IC50 refers to the midpoint of a concentration-inhibition curve.
